16 molecules from ChEMBL document CHEMBL4229365, “Synthesis of novel ring-contracted artemisinin dimers with potent anticancer activities” (Eur J Med Chem, 2018) can be followed below.

A value given as a limit tells only on which side of the number the result lay.

One experiment concerns A549. The experiment in a line: Antiproliferative activity against human A549 cells after 72 hrs by CCK-8 assay. In kind it is functional, cell-based. The conditions noted are these: A549, 72 h. (Formazan colour is commonly taken as a measure of viable cells.)
The subject of another experiment is SH-SY5Y. Description: Antiproliferative activity against human SH-SY5Y cells after 72 hrs by CCK-8 assay. The format is functional, cell-based.
For a further experiment, the system named is HCT-116. Description: Antiproliferative activity against human HCT116 cells after 72 hrs by CCK-8 assay. The settings on record: HCT-116, 72 h. The format is functional, cell-based.
A further experiment relates to PC-12. The experiment in a line: Antiproliferative activity against rat PC12 cells after 72 hrs by CCK-8 assay. The format is functional, cell-based. The conditions noted are these: PC-12, 72 h.
The subject of the next experiment is A-375. The experiment in a line: Antiproliferative activity against human A375 cells after 72 hrs by CCK-8 assay. The format is functional, cell-based. The settings on record: A-375, 72 h.
A further experiment deals with L02. Description: Antiproliferative activity against human L02 cells after 72 hrs by CCK-8 assay. The settings on record: L02, 72 h. The format is cell-based.

In general, IC50 refers to the point on the concentration scale where inhibition reaches its midpoint. A higher IC50 goes with weaker potency in that assay. Take `C[C@@H]1CC[C@@H]2[C@]34OO[C@](C)(CC[C@@H]13)O[C@H]4O[C@]2(C)C(=O)Nc1ccc(NC(=O)[C@@]2(C)O[C@@H]3O[C@@]4(C)CC[C@H]5[C@H](C)CC[C@@H]2[C@@]35OO4)cc1`: the IC50 in the experiment on A549, in the experiment on SH-SY5Y, in the experiment on HCT-116, in the experiment with PC-12 and in the experiment with A-375 was > 50 µM throughout.

For `C[C@@H]1CC[C@@H]2[C@]34OO[C@](C)(CC[C@@H]13)O[C@H]4O[C@]2(C)C(=O)OCCCCCCOC(=O)[C@@]1(C)O[C@@H]2O[C@@]3(C)CC[C@H]4[C@H](C)CC[C@@H]1[C@@]24OO3`, the IC50 is > 50 µM in the experiment with A549; 15.3 µM in the experiment on SH-SY5Y; > 50 µM in the experiment with HCT-116; 33.2 µM in the experiment on PC-12; > 50 µM in the experiment with L02; 22.6 µM with A-375.

In the case of `C[C@@H]1CC[C@@H]2[C@]34OO[C@](C)(CC[C@@H]13)O[C@H]4O[C@]2(C)C(=O)Nc1ccccc1NC(=O)[C@@]1(C)O[C@@H]2O[C@@]3(C)CC[C@H]4[C@H](C)CC[C@@H]1[C@@]24OO3`, the IC50 is 31.6 µM in the experiment with A549; 5.75 µM in the experiment on SH-SY5Y; 20 µM with HCT-116; 18.2 µM in the experiment with PC-12; > 50 µM in the experiment on L02; 11.3 µM in the experiment with A-375.

Take `CCOP(=O)(OC[C@@]1(C)O[C@@H]2O[C@@]3(C)CC[C@H]4[C@H](C)CC[C@@H]1[C@@]24OO3)OC[C@@]1(C)O[C@@H]2O[C@@]3(C)CC[C@H]4[C@H](C)CC[C@@H]1[C@@]24OO3`: the IC50 worked out at 15.4 µM in the experiment with A549; 14.8 µM with HCT-116; 5.46 µM in the experiment with PC-12; 33.9 µM with L02; 9.62 µM in the experiment on A-375.

On to `C[C@@H]1CC[C@@H]2[C@]34OO[C@](C)(CC[C@@H]13)O[C@H]4O[C@]2(C)C(=O)OCc1ccccc1COC(=O)[C@@]1(C)O[C@@H]2O[C@@]3(C)CC[C@H]4[C@H](C)CC[C@@H]1[C@@]24OO3`, for which the concentration for half-maximal inhibition (IC50) with A549 is 21.7 µM; in the experiment with SH-SY5Y, 47.5 µM; with HCT-116, 15.1 µM; with PC-12 it was 8.73 µM; with L02, 5 µM; with A-375, > 50 µM.

Regarding `C[C@@H]1CC[C@@H]2[C@]34OO[C@](C)(CC[C@@H]13)O[C@H]4O[C@]2(C)C(=O)OCCCCCCCOC(=O)[C@@]1(C)O[C@@H]2O[C@@]3(C)CC[C@H]4[C@H](C)CC[C@@H]1[C@@]24OO3`, the IC50 in the experiment on A549 stood at 7.71 µM; in the experiment with SH-SY5Y, 7.29 µM; with HCT-116, 11.6 µM; in the experiment on PC-12, 8.17 µM; with L02, 16.6 µM; in the experiment with A-375, 7.86 µM.

In the case of `COc1cccc2c1C(=O)c1c(O)c3c(c(O)c1C2=O)C[C@@](O)(C(=O)CO)C[C@@H]3O[C@H]1C[C@H](N)[C@H](O)[C@H](C)O1` [DOXORUBICIN], the concentration for half-maximal inhibition (IC50) in the experiment with A549 stood at 0.43 µM; with SH-SY5Y, 0.35 µM; in the experiment with HCT-116, 0.79 µM; in the experiment on PC-12, 0.52 µM; in the experiment on L02, 0.85 µM; in the experiment with A-375 it was 0.37 µM.

Turning to `C[C@@H]1CC[C@@H]2[C@]34OO[C@](C)(CC[C@@H]13)O[C@H]4O[C@]2(C)C(=O)OCCCCCCCCOC(=O)[C@@]1(C)O[C@@H]2O[C@@]3(C)CC[C@H]4[C@H](C)CC[C@@H]1[C@@]24OO3`, the IC50 stood at 4.69 µM in the experiment with A549; 4.87 µM with SH-SY5Y; 31.6 µM in the experiment on HCT-116; 5.67 µM in the experiment with PC-12; 4.84 µM in the experiment on L02; 5.73 µM in the experiment on A-375.

With `C[C@@H]1CC[C@@H]2[C@]34OO[C@](C)(CC[C@@H]13)O[C@H]4O[C@]2(C)C(=O)OCCCCCOC(=O)[C@@]1(C)O[C@@H]2O[C@@]3(C)CC[C@H]4[C@H](C)CC[C@@H]1[C@@]24OO3`, the IC50 in the experiment with A549 is 12 µM; in the experiment on SH-SY5Y, 9.26 µM; in the experiment with HCT-116, > 50 µM; in the experiment on PC-12, > 50 µM; in the experiment with A-375 it was > 50 µM.

With `C[C@@H]1CC[C@@H]2[C@]34OO[C@](C)(CC[C@@H]13)O[C@H]4O[C@]2(C)C(=O)NCCCCCCCCNC(=O)[C@@]1(C)O[C@@H]2O[C@@]3(C)CC[C@H]4[C@H](C)CC[C@@H]1[C@@]24OO3`, the half-maximal inhibitory concentration (IC50) in the experiment with A549 is 18.9 µM; with SH-SY5Y it was > 50 µM; with HCT-116, > 50 µM; in the experiment on PC-12, 11.2 µM; in the experiment with L02, > 50 µM; in the experiment with A-375, 19.4 µM.

Consider `C[C@@H]1CC[C@@H]2[C@]34OO[C@](C)(CC[C@@H]13)O[C@H]4O[C@]2(C)C(=O)OCC(C)(C)COC(=O)[C@@]1(C)O[C@@H]2O[C@@]3(C)CC[C@H]4[C@H](C)CC[C@@H]1[C@@]24OO3`, for which the concentration for half-maximal inhibition (IC50) in the experiment on A549, in the experiment with SH-SY5Y, in the experiment on HCT-116, in the experiment on PC-12 and in the experiment on A-375 was > 50 µM throughout.

With `C[C@@H]1CC[C@@H]2[C@]34OO[C@](C)(CC[C@@H]13)O[C@H]4O[C@]2(C)C(=O)OCCOC(=O)[C@@]1(C)O[C@@H]2O[C@@]3(C)CC[C@H]4[C@H](C)CC[C@@H]1[C@@]24OO3`, the IC50 in the experiment with A549, with SH-SY5Y, with HCT-116, in the experiment with PC-12 and in the experiment with A-375 was > 50 µM throughout.

Take `C[C@@H]1CC[C@@H]2[C@]34OO[C@](C)(CC[C@@H]13)O[C@H]4O[C@]2(C)C(=O)NCCCCNC(=O)[C@@]1(C)O[C@@H]2O[C@@]3(C)CC[C@H]4[C@H](C)CC[C@@H]1[C@@]24OO3`: the IC50 in the experiment on A549 was > 50 µM; in the experiment on SH-SY5Y it was > 50 µM; with HCT-116, > 50 µM; in the experiment with PC-12 it was 25.4 µM; with A-375, > 50 µM.

As for `C[C@@H]1CC[C@@H]2[C@]34OO[C@](C)(CC[C@@H]13)O[C@H]4O[C@]2(C)C(=O)OCCCCCCCCCCCCOC(=O)[C@@]1(C)O[C@@H]2O[C@@]3(C)CC[C@H]4[C@H](C)CC[C@@H]1[C@@]24OO3`, the half-inhibitory concentration (IC50) in the experiment with A549, with SH-SY5Y, in the experiment on HCT-116, with PC-12 and with A-375 was > 50 µM throughout.

Regarding `C[C@@H]1CC[C@@H]2[C@]34OO[C@](C)(CC[C@@H]13)O[C@H]4O[C@]2(C)C(=O)NCCCCCCNC(=O)[C@@]1(C)O[C@@H]2O[C@@]3(C)CC[C@H]4[C@H](C)CC[C@@H]1[C@@]24OO3`, the IC50 is > 50 µM in the experiment on A549; > 50 µM with SH-SY5Y; > 50 µM with HCT-116; > 50 µM with PC-12; 35.3 µM in the experiment with A-375.

Consider `C[C@@H]1CC[C@@H]2[C@]34OO[C@](C)(CC[C@@H]13)O[C@H]4O[C@]2(C)C(=O)Nc1cccc(NC(=O)[C@@]2(C)O[C@@H]3O[C@@]4(C)CC[C@H]5[C@H](C)CC[C@@H]2[C@@]35OO4)c1`, for which the IC50 in the experiment with A549, with SH-SY5Y, in the experiment on HCT-116, with PC-12 and with A-375 was > 50 µM in each case.
